Test results reported in patent US20250042920A1 (OCEAN UNIVERSITY OF CHINA, priority 2021, published 2025).

How the values were obtained:
MNK2 = MNK2 (Homo sapiens, UniProt Q9HBH9); test: MNK2 kinase inhibition assay (LANCE Ultra kinase activity assay, PerkinElmer); format: biochemical; conditions: 100 μM ATP; for IC50: five concentrations 10000-1 nM; for inhibition at 1 µM: inhibition rate at 1000 nM compound, 60 min, 25° C., read-out: Inhibitory activity(1 μM) MNK2
Experimental: (§1) MNK1 and MNK2 kinase inhibition assays were performed using LANCE Ultra kinase activity assay developed by PerkinElmer. […] The test steps are as follows: At 25° C., 1.00 ng MNK1 or 0.05 ng MNK2 was prepared with different concentrations (10000, 1000, 100, 10, 1 nM) of the tested compound to form a total volume of 10 μL reaction mixture (MNK1: 12.5 nM CREB, 450 μM ATP, 2 mM DTT, 1× buffer; MNK2: 12.5 nM CREB, 100 μM ATP, 2 mM DTT, 1×buffer), and incubation for 60 min. The reaction was terminated by adding 5 μL EDTA/Detection buffer and 5 μL Eu-CREB/Detection buffer. The ratio of HTRF signals at 615 nm and 665 nm was detected after 60 min of incubation. The inhibition rate was calculated by measuring the compounds at 1000 nM.
(§2) Then five different concentrations (10000, 1000, 100, 10, 1 nM) of the tested compounds were measured, and the IC50 value was calculated according to the inhibition rate fitting curve.

MNK1 = MNK1 (Homo sapiens, UniProt Q9BUB5); test: MNK1 kinase inhibition assay (LANCE Ultra kinase activity assay, PerkinElmer); format: biochemical; conditions: 450 μM ATP; for IC50: five concentrations 10000-1 nM; for inhibition at 1 µM: inhibition rate at 1000 nM compound, 60 min, 25° C., read-out: Inhibitory activity(1 μM) MNK1
Sequence of MNK1 (Q9BUB5 whole entry): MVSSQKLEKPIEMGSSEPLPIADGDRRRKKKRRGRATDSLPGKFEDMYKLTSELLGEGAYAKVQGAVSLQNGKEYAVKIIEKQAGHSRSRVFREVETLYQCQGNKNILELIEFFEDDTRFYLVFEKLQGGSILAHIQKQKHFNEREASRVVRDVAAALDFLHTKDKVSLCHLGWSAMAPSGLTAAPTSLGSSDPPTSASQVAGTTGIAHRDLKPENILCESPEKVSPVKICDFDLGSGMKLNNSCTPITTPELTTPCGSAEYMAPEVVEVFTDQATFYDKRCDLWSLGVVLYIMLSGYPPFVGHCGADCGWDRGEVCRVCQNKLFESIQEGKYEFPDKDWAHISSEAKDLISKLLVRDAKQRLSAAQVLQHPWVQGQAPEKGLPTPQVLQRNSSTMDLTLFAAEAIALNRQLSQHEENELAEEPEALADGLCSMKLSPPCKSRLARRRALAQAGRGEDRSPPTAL
Experimental: as §1, §2

Sequence of MNK2 (Q9HBH9 whole entry): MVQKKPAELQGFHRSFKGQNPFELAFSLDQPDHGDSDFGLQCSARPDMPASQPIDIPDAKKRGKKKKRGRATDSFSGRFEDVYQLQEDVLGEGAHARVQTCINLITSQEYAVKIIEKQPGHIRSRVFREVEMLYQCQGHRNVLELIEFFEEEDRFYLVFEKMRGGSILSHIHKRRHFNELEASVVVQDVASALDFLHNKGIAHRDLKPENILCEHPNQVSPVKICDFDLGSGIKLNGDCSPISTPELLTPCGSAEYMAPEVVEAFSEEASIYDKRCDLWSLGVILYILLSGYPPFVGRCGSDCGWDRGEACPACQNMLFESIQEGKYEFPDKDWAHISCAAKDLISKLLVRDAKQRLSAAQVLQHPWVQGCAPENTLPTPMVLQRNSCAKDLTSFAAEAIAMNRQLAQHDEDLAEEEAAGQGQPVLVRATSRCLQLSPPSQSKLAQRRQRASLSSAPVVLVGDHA

| Structure (SMILES) | IC50 (MNK2) [µM] | inhibition at 1 µM (MNK2) [%] | IC50 (MNK1) [µM] | inhibition at 1 µM (MNK1) [%] |
| --- | --- | --- | --- | --- |
| CN1CCN(C(=O)c2ccc(-c3nn4c(-c5ccc(C#N)c(F)c5)cnc4s3)cc2)CC1 [Compound 24, 2-fluoro-4-(2-(4-(4-methylpiperazine-1-carbonyl)phenyl)imidazo[2,1-b][1,3,4]thiadiazol-5-yl)benzonitrile] | 0.05 to 0.2 | > 75 | 0.05 to 0.2 | > 75 |
| O=C(c1ccc(-c2nn3c(-c4ccc(F)c(F)c4)cnc3s2)cc1)N1CCOCC1 [Compound 11, (4-(5-(3,4-difluorophenyl)imidazo[2,1-b][1,3,4]thiadiazol-2-yl)phenyl)(morpholino)methanone] |  | > 75 |  | > 75 |
| CN1CCN(C(=O)c2ccc(-c3nn4c(-c5ccncc5)cnc4s3)cc2)CC1 [Compound 20, (4-methylpiperazin-1-yl)(4-(5-(pyridin-4-yl)imidazo[2,1-b][1,3,4]thiadiazol-2-yl)phenyl)methanone] | 0.05 to 0.2 | > 75 | 0.2 to 0.8 | > 75 |
| CN1CCN(C(=O)c2ccc(-c3nn4c(-c5ccc(C#N)nc5)cnc4s3)cc2)CC1 [Compound 27, 5-(2-(4-(4-methylpiperazine-1-carbonyl)phenyl)imidazo[2,1-b][1,3,4]thiadiazol-5-yl)picolinonitrile] |  | 25 to 50 |  | 25 to 50 |
| O=C(c1ccc(-c2cn3c(-c4ccc(C(F)(F)F)cc4)csc3n2)cc1)N1CCOCC1 [Compound 46, morpholino(4-(3-(4-(trifluoromethyl)phenyl)imidazo[2,1-b]thiazol-6-yl)phenyl)methanone] |  | 25 to 50 |  | 25 to 50 |
| O=C(c1ccc(-c2cn3c(-c4ccc(F)cc4)csc3n2)cc1)N1CCC(N2CCOCC2)CC1 [Compound 52, 6-(4-(4-morpholinepiperidinebasecarbonyl)phenyl)-3-(4-fluorinatedphenyl) imidazole [2,1-b]thiazole compounds] |  | 25 to 50 |  | 25 to 50 |
| N#Cc1ccc(-c2cnc3sc(-c4ccc(C(=O)NCCN5CCCC5)cc4)nn23)cc1 [Compound 38, 4-(5-(4-cyanophenyl)imidazo[2,1-b][1,3,4]thiadiazol-2-yl)-N-(2-(pyrrolidin-1-yl)ethyl)benzamide] | < 0.05 | > 75 | < 0.05 | > 75 |
| O=C(c1ccc(-c2nn3c(-c4ccc(Cl)cc4)cnc3s2)cc1)N1CCOCC1 [Compound 6, (4-(5-(4-chlorophenyl)imidazo[2,1-b][1,3,4]thiadiazol-2-yl)phenyl)(morpholino)methanone] | 0.05 to 0.2 | > 75 | 0.05 to 0.2 | > 75 |
| CN1CCN(C(=O)c2ccc(-c3nn4c(-c5ccc(C(F)(F)F)nc5)cnc4s3)cc2)CC1 [Compound 29, (4-methylpiperazin-1-yl)(4-(5-(6-(trifluoromethyl)pyridin-3-yl)imidazo[2,1-b][1,3,4]thiadiazol-2-yl)phenyl)methanone] |  | 25 to 50 |  | 25 to 50 |
| O=C(c1ccc(-c2nn3c(-c4ccc(O)c(F)c4)cnc3s2)cc1)N1CCOCC1 [Compound 10, (4-(5-(3-fluoro-4-hydroxyphenyl)imidazo[2,1-b][1,3,4]thiadiazol-2-yl)phenyl)(morpholino)methanone] | < 0.05 | > 75 | 0.05 to 0.2 | > 75 |
| O=C(c1ccc(-c2cn3c(-c4ccc(Cl)cc4)csc3n2)cc1)N1CCOCC1 [Compound 47, (4-(3-(4-chlorophenyl)imidazo[2,1-b]thiazol-6-yl)phenyl)(morpholino)methanone] |  | 25 to 50 |  | 25 to 50 |
| CN1CCN(C(=O)c2ccc(-c3cn4c(-c5ccc(Cl)cc5)csc4n3)cc2)CC1 [Compound 51, (4-(3-(4-chlorophenyl)imidazo[2,1-b]thiazol-6-yl)phenyl)(4-methylpiperazin-1-yl)methanone] |  | 25 to 50 |  | 25 to 50 |
| O=C(c1ccc(-c2nn3c(-c4ccc(C(F)(F)F)cc4)cnc3s2)cc1)N1CCOCC1 [Compound 5, morpholino(4-(5-(4-(trifluoromethyl)phenyl)imidazo[2,1-b][1,3,4]thiadiazol-2-yl)phenyl)methanone] | 0.05 to 0.2 | > 75 | 0.05 to 0.2 | > 75 |
| CN1CCN(C(=O)c2ccc(-c3cn4c(-c5ccc(C(F)(F)F)cc5)csc4n3)cc2)CC1 [Compound 50, (4-methylpiperazin-1-yl)(4-(3-(4-(trifluoromethyl)phenyl)imidazo[2,1-b]thiazol-6-yl)phenyl)methanone] |  | 25 to 50 |  | 25 to 50 |
| CN1CCN(C(=O)c2ccc(-c3nn4c(-c5ccc(C#N)cc5)cnc4s3)cc2)CC1 [Compound 17, 4-(2-(4-(4-methylpiperazine-1-carbonyl)phenyl)imidazo[2,1-b][1,3,4]thiadiazol-5-yl)benzonitrile] | < 0.05 | > 75 | < 0.05 | > 75 |

Next, values leading:

| IC50 (MNK2) [µM] | inhibition at 1 µM (MNK2) [%] | IC50 (MNK1) [µM] | inhibition at 1 µM (MNK1) [%] | Structure (SMILES) |
| --- | --- | --- | --- | --- |
| 0.2 to 0.8 | > 75 | 0.2 to 0.8 | > 75 | O=C(c1ccc(-c2nn3c(-c4ccc(CO)cc4)cnc3s2)cc1)N1CCOCC1 [Compound 8] |
|  | 25 to 50 |  | 25 to 50 | N#Cc1ccc(-c2cnc3sc(-c4ccc(C(=O)OCCCCCO)cc4)nn23)cc1 [Compound 34, 5-hydroxypentyl 4-(5-(4-cyanophenyl)imidazo[2,1-b][1,3, 4]thiadiazol-2-yl)benzoate] |
| < 0.05 | > 75 | 0.05 to 0.2 | > 75 | CN1CCN(C(=O)c2ccc(-c3nn4c(-c5ccc(F)cc5)cnc4s3)cc2)CC1 [Compound 18, (4-(5-(4-fluorophenyl)imidazo[2,1-b][1,3,4]thiadiazol-2-yl)phenyl)(4-methylpiperazin-1-yl)methanone] |
|  | 25 to 50 |  | 25 to 50 | N#Cc1ccc(-c2cnc3sc(-c4ccc(C(=O)SCCO)cc4)nn23)cc1 [Compound 35, S-(2-hydroxyethyl)4-(5-(4-cyanophenyl)imidazo[2,1-b][1,3,4]thiadiazol-2-yl)benzothioate] |
|  | 25 to 50 |  | 25 to 50 | O=C(c1ccc(-c2cn3c(-c4ccc(F)cc4)csc3n2)cc1)N1CCOCC1 [Compound 44, (4-(3-(4-fluorophenyl)imidazo[2,1-b]thiazol-6-yl)phenyl)(morpholino)methanone] |
| < 0.05 | > 75 | < 0.05 | > 75 | CC1CCCCN1C(=O)c1ccc(-c2nn3c(-c4ccc(C#N)cc4)cnc3s2)cc1 (centres unmarked) [Compound 41, 4-(2-(4-(2-methylpiperidine-1-carbonyl)phenyl)imidazo[2,1-b][1,3,4]thiadiazol-5-yl)benzonitrile] |
| < 0.05 | > 75 | < 0.05 | > 75 | N#Cc1ccc(-c2cnc3sc(-c4ccc(C(=O)N5CCCC5)cc4)nn23)cc1 [Compound 30, 4-(2-(4-(pyrrolidine-1-carbonyl)phenyl)imidazo[2,1-b][1,3,4]thiadiazol-5-yl)benzonitrile] |
| < 0.05 | > 75 | < 0.05 | > 75 | CN(C)C1CCN(C(=O)c2ccc(-c3nn4c(-c5ccc(C(F)(F)F)cc5)cnc4s3)cc2)CC1 [Compound 16] |
|  | 25 to 50 |  | 25 to 50 | CN1CCN(C(=O)c2ccc(-c3cn4c(-c5ccc(F)cc5)csc4n3)cc2)CC1 [Compound 49, (4-(3-(4-fluorophenyl)imidazo[2,1-b]thiazol-6-yl)phenyl)(4-methylpiperazin-1-yl)methanone] |
| 0.05 to 0.2 | > 75 | 0.2 to 0.8 | > 75 | COC(=O)c1ccc(-c2cnc3sc(-c4ccc(C(=O)N5CCN(C)CC5)cc4)nn23)cc1 [Compound 19, methyl 4-(2-(4-(4-methylpiperazine-1-carbonyl)phenyl)imidazo[2,1-b][1,3,4]thiadiazol-5-yl)benzoate] |
| < 0.05 | > 75 | < 0.05 | > 75 | N#Cc1ccc(-c2cnc3sc(-c4ccc(C(=O)NCCCO)cc4)nn23)cc1 [Compound 39, 4-(5-(4-cyanophenyl)imidazo[2,1-b][1,3,4]thiadiazol-2-yl)-N-(3-hydroxypropyl)benzamide] |
|  | 25 to 50 |  | 25 to 50 | CN(C)C1CCN(C(=O)c2ccc(-c3cn4c(-c5ccc(Cl)cc5)csc4n3)cc2)CC1 [Compound 55, (4-(3-(4-chlorophenyl)imidazo[2,1-b]thiazol-6-yl)phenyl)(4-(dimethylamino)piperidin-1-yl)methanone] |
| < 0.05 | > 75 | < 0.05 | > 75 | CN(C)C1CCN(C(=O)c2ccc(-c3nn4c(-c5ccc(F)cc5)cnc4s3)cc2)CC1 [Compound 13, (4-(dimethylamino)piperidin-1-yl)(4-(5-(4-fluorophenyl)imidazo[2,1-b][1,3,4]thiadiazol-2-yl)phenyl)methanone] |
